Data on six compounds can be found in patent US20030229048A1, “Methods and compositions for inhibition of irritation by disaccharide and metal ions” (priority 2002, published 2003).

What all share (assay type): cell-based, Human
In data set [1] the test system is IL-1α. Briefly: IL-1α release (ELISA) in keratinocyte cells stimulated with methyl salicylate. The settings on record: for inhibition of MS induced IL-1α release: summary statement. How it is done:
(§1) Reagents methyl salicylate, ethacrynic acid, trehalose A, B, and C were obtained from Sigma-Aldrich (St. Louis, Mo.). Trehaloses were dissolved in keratinocyte media. Methyl salicylate was diluted in keratinocyte media. Ethacrynic acid was dissolved in DMSO. Keratinocyte cells were grown to 100% confluency as per the instructions given by ATCC. Then the cells were trypsinized to dislodge cells and spun at 3000 rpm for 3 min. The supernatant was aspirated and the cells were re-suspended in fresh media at a density of 1.0×10^6 cells per mL. The cell suspension was the pipetted into a 96-well plate (200 ul of per well) and cells were incubated overnight at 37° C. The next day morning media was aspirated, and 100 uL of fresh medium containing methyl salicylate (2%) was added to all the wells except for the (−) control wells. No MS was included in the (−) control wells. Then 100 uL of medium containing the various test reagents were added to the wells so that the final concentrations were as indicated in FIGS. 2-7. The 96-well plate was then incubated. After incubation for four hours at 36° C., the supernatant from the wells was transferred to centrifuge tubes and centrifuged to remove the cell debris. Then the presence of IL-1α was determined using ELISA kit (R&D systems, Inc.) as per the manufacturer's specifications. The cells remaining in the wells were treated with pre-warmed media containing MTT solution and incubated for four hours. Then the formazan product (metabolic product of MTT) in the wells was solubilized and the absorbance was measured using a plate reader.
Human keratinocytes were stimulated with MS in the absence or the presence of trehalose compounds, to find an optimal concentration of trehalose at which IL- 1α production is reduced by half compared to the positive control.
Background: ELISA stands for enzyme-linked immunosorbent assay.

Data set [2] deals with IL-1α. The description is as above. The settings on record: substance alone; earlier work of the applicant.
A further data set deals with Keratinocyte cells. The experiment in a line: MTT assay, cytotoxicity / cell viability of keratinocyte cells. On the procedure: as §1, with “After incubation for four hours at 36° C., the supernatant from the wells was transferred to centrifuge tubes and centrifuged to remove the cell debris.” left out, “The cells remaining in the wells were treated with pre-warmed media containing MTT solution and incubated for four hours.” left out, “reader. […]” for “reader.”

Consider `OC[C@H]1O[C@H](O[C@H]2O[C@H](CO)[C@@H](O)[C@H](O)[C@H]2O)[C@H](O)[C@@H](O)[C@@H]1O` [Trehalose B, trehalose], for which the “effect on IL-1α levels in Keratinocyte cells stimulated by 1% Methyl Salicylate” value is reported as “no effect” with IL-1α [1] (FIG. 5, lower concentrations); “no effect” in the data set on IL-1α [1] (any concentrations that were tested, FIGS. 2 and 3). Also, the “effect on IL-1α levels compared to MS 1% (positive control)” value with IL-1α [1] (at any of 2.5%, 5%, 10%, FIG. 2) is “no effect”. Besides, the “inhibition of MS induced IL-1α release” value in the data set with IL-1α [1] (concentration not stated, listed as trehalose B) was “no effect”.
As for `C=C(CC)C(=O)c1ccc(OCC(=O)O)c(Cl)c1Cl` [Ethacrynic Acid, reference compound], the “inhibition of MS induced IL-1α release” value in the data set with IL-1α [1] (concentration not given) is given as “inhibited the IL-1α release by MS”. The “reduction in IL-1α levels compared to MS 1% (positive control)” value in the data set with IL-1α [1] (test substance at 0.16%, FIG. 2) is given as “over 50%”.
For `COC(=O)c1ccccc1O` [MS, Methyl Salicylate], the “release of primary cytokines, especially IL-1α, in epidermal keratinocytes” value in the data set on IL-1α [2] was “stimulates release”.
In the case of `[O]=[Zn]` [Zinc Oxide], the “MTT concentration levels in Keratinocyte cells (cell viability)” value in the data set on Keratinocyte cells (concentrations at which ZnO inhibited MS stimulated IL-1α release, FIG. 7) was “no effect”. Also, the “state of the cells” value in the data set on Keratinocyte cells (high concentrations of zinc oxide, FIG. 4 experiment) is “the cells were not active”. In the data set on IL-1α [1] (FIG. 5, lower concentrations), the “effect on IL-1α levels in Keratinocyte cells stimulated by 1% Methyl Salicylate” value was “significant dose dependent decrease”. For the same compound, the “IL-1α levels in Keratinocyte cells stimulated with 1% Methyl Salicylate” value with IL-1α [1] (concentration levels 10%-1.25%, FIG. 4) was “large decrease”. The “MS stimulated IL-1α levels” value in the data set on IL-1α [1] (high concentrations, FIG. 4) was “dramatic reduction”. Also, in the data set with IL-1α [1] (concentration not given), the “inhibition of MS induced IL-1α release” value is “able to block MS induced IL-1α production as effectively as trehalose A”. Further, the “reduction in IL-1α concentrations induced by Methyl Salicylate” value with IL-1α [1] (test substance at 0.000125%, FIG. 5) is “greater than 50%”.
`OC[C@H]1O[C@H](O[C@H]2O[C@H](CO)[C@@H](O)[C@H](O)[C@H]2O)[C@H](O)[C@@H](O)[C@@H]1O` [Trehalose C, trehalose]: the “inhibition of MS induced IL-1α release” value with IL-1α [1] (concentration not stated, listed as trehalose C) was “no effect”.
As for `OC[C@H]1O[C@H](O[C@H]2O[C@H](CO)[C@@H](O)[C@H](O)[C@H]2O)[C@H](O)[C@@H](O)[C@@H]1O` [Trehalose A, trehalose], the “effect on IL-1α levels, MS stimulated” value in the data set on IL-1α [1] (low concentrations of 0.1-2.5%) is given as “neither trehalose A nor B showed any effect”. Also, in the data set on IL-1α [1] (concentration not stated, listed as trehalose A), the “inhibition of MS induced IL-1α release” value is listed as “capable of inhibiting MS induced IL-1α release”. Moreover, the “reduction in IL-1α levels compared to MS 1% (positive control)” value in the data set with IL-1α [1] (test substance at 2.5%, FIG. 2) is listed as “no effect”; with IL-1α [1] (test substance at 5%, FIG. 2) it was “much lower levels of reduction”.
